# Measurements taken from patent US20120252730A1, “PLATELET AGGREGATION INHIBITORS” (UNIVERSITY OF CHICAGO, priority 2009, published 2012).
# Ends that are not written are not given here.
# Key:
# platelets [1] = details: cited from earlier work
# αIIbβ3 = target: T1, αIIbβ3 (Homo sapiens, UniProt P05106+P08514); details: cited from earlier work
# T1 construct: host or cells: platelets
# CHO K1 cells = assay: Blocking of CHO K1 cell attachment to GRGDSC monolayer; assay type: cell-based; details: 300 μM
# Description: (§1) FIG. 2 depicts the results of FACS analyses and binding studies of a αIIbβ3 expressing CHO K1 cell line. […] Transfected αIIbβ3 CHO K1 cells express αIIbβ3 at the cell surface, as detected by anti-β3 and PAC-1 antibody (bottom) (the middle and right hand lanes show anti-β3 antibody and PAC-1 antibody binding, respectively). Panel B is a graph of the concentration of cRGDFG (SEQ ID NO: 12; where F is a D amino acid) versus adhesion of αIIbβ3 CHO K1 cells. The peptide cRGDFG (SEQ ID NO: 12), a cyclic peptide that specifically binds to α5 and αV integrins, inhibits CHO K1 cell adhesion to 0.5% GRGDSC (SEQ ID NO: 11) SAMs. Panels C-F are photomicrographs of cells adhering to GRGDSC (SEQ ID NO: 11).
# (§2) CHO K1 cells were used that were transfected with the αIIbβ3 receptor, as described previously (Salsmann et al., 2005). Cells were transfected with pcDNA3.1 vectors that coded for αIIb and β3 using FuGENE6 and analyzed by FACS after labeling with the PAC-1 (anti-αIIbβ3) and H-96 (anti-β3) antibodies. Approximately 30% of the cells expressed the receptor (FIG. 2A). Because the CHO K1 cells also express αv and α5 integrins on their surfaces, adhesion experiments were performed in the presence of the cyclic peptide cRGDFG (SEQ ID NO: 12), where F is a D amino acid. […] All experiments that follow, unless stated otherwise, were performed in the presence of 300 μM cRGDFG (SEQ ID NO: 12).
# αIIbβ3 CHO K1 cells [2] = assay: Blocking of αIIbβ3 CHO K1 cell adhesion to GRGDSC monolayer; assay type: cell-based, human; details: 300 μM
# Description: as §1, §2
# αvβ3 = αvβ3 (Homo sapiens, UniProt P05106+P06756); details: cited from earlier work
# Chain of αvβ3 (P06756 31-889 limits assumed): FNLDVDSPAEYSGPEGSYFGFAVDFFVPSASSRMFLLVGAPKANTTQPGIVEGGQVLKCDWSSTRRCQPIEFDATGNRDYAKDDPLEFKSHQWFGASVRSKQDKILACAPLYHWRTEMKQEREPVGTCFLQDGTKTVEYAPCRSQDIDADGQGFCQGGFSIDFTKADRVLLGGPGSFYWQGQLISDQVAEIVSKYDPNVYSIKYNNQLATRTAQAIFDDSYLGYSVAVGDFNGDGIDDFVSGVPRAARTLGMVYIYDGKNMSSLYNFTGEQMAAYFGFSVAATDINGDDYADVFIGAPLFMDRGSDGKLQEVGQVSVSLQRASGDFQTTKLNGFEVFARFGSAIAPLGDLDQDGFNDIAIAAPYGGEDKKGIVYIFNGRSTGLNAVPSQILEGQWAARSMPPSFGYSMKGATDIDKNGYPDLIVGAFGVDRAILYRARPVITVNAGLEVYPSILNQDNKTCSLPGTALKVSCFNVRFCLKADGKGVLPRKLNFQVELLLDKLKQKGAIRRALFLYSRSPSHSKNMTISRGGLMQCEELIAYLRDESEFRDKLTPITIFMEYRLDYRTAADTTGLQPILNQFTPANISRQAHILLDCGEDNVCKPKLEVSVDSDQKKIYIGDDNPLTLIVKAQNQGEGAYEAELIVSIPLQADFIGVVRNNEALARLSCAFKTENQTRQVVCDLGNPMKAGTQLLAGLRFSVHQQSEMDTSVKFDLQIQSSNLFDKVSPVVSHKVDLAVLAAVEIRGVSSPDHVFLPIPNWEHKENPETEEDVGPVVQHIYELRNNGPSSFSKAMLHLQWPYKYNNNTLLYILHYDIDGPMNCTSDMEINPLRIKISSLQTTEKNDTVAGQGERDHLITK
# Chain of αvβ3 (P06756 891-1048 partner limits assumed): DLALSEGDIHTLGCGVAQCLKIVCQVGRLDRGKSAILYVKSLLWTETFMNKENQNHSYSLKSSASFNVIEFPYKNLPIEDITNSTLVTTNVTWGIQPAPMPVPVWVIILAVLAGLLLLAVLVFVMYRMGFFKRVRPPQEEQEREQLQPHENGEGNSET
# Chain of αvβ3 (P05106 27-788): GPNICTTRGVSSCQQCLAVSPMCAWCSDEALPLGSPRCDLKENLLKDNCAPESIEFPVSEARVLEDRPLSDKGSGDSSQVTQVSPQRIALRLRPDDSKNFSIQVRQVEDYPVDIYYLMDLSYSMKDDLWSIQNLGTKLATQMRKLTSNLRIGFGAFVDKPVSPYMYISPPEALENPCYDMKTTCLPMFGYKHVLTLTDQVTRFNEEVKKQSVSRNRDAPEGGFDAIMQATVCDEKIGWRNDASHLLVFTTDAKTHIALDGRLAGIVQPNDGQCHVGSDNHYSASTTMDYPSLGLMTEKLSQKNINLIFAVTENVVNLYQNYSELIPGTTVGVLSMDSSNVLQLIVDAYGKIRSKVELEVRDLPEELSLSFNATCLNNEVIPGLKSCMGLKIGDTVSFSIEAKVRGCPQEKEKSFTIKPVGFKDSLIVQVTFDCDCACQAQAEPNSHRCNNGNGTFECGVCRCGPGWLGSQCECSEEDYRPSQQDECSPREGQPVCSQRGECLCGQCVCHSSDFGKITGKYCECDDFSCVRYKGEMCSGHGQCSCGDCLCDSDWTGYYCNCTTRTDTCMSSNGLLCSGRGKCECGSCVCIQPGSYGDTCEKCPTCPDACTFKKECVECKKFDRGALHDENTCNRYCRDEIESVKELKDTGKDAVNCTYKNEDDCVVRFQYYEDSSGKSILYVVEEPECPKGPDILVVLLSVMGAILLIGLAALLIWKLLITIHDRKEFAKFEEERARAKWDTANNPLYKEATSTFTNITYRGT
# platelets [3] = details: cited from earlier work; remark: listed apart in the source
# αIIbβ3 CHO K1 cells [4] = assay: Cell adhesion assay: αIIbβ3 CHO K1 cells on SAMs presenting immobilized peptides; assay type: cell-based, human; details: 0.5% peptide SAM; in presence of 300 μM cRGDFG
# Protocol: Monolayers were prepared as described (Houseman, et al., 2003). Glass coverslips were sonicated for 30 minutes in deionized ultrafiltered (DIUF) water and then 30 minutes in ethanol and then dried under a stream of nitrogen. Titanium (4 nm) and then gold (29 nm) were evaporated onto the coverslips using an electron beam evaporator (Boc Edwards) at a rate of 0.05-0.10 nm/s and at a pressure of 1 μTorr. The gold-coated coverslips were immersed in an ethanolic solution of maleimide-terminated disulfide (1%) and tri(ethylene glycol)-terminated disulfide (99%) overnight at room temperature. The total disulfide concentration was 1 mM. The substrates were washed with DIUF water, ethanol and then dried under a stream of nitrogen.
# The pcDNA3.1 vectors that express human αIIb or β3, respectively, have been described previously (see e.g., Litvinov et al. (2006) Biochemistry, 45: 4957-4964). CHO K1, BHK 21 and HT1080 cells were purchased from ATCC. All CHO cells were cultured at 37° C. and 5% CO2 using F12K medium supplemented with 10% FBS and pen/strep. […] CHO K1 cells were transfected with αIIb and β3 cDNA with FuGENE following the supplier's protocol. Transfected cells were selected with 1 mg/mL zeocin and 1 mg/mL geneticin.
# (§3) Cysteine-terminated peptides were immobilized onto maleimide-presenting SAMs by adding 40 μL of 1 mM peptide solution to the biochip and incubating at 37° C. for 1 hour. Substrates were rinsed with DIUF water and ethanol and dried under a stream of nitrogen. αIIbβ3 CHO K1 cells were detached from culture plates with 1 mM EGTA/2 mM EDTA in PBS (phosphate-buffered saline), rinsed with serum-free F-12K medium, centrifuged and resuspended in serum-free F-12K medium supplemented with cRGDFG (SEQ ID NO: 12) (300 μM) and 1× penicillin/streptomycin. After 15-minute of incubation, cells (200,000/mL) were added to substrates in 24-well culture plates. After 2 hour incubation at 37° C. and 5% CO2, media was exchanged for F-12K medium supplemented with 10% FBS, 1× penicillin/streptomycin and cRGDFG (SEQ ID NO: 12) (300 μM). After 2 hours, the substrates were washed gently with warm PBS, and adherent cells were immediately fixed with 4% formaldehyde for 30 minutes, visualized with a 20× objective of a Zeiss Axiovert 200 inverted microscope, and photographed. For cell adhesion assays mediated by Ac-GXGDSC (SEQ ID NO: 26), αIIbβ3 CHO K1 cells were incubated on a 5×4 circle (1 mm diameter) array for 1 hour with serum-free F-12K medium supplemented with cRGDFG (SEQ ID NO: 12) (300 μM) and 1× penicillin/streptomycin, followed by media exchange to F-12K medium supplemented with 10% FBS, 1× penicillin/streptomycin and cRGDFG (SEQ ID NO: 12) (300 μM. The substrates were washed with warm PBS, and adherent cells were immediately fixed and permeabilized with 4% formaldehyde and 0.5% Triton-X for 30 minutes. Fixed cells were stained with DAPI, visualized and photographed with a 20× objective as described. The number of adherent cells per field of view was counted using Image J software. Cells were counted in at least three fields for each circle, and each experiment was repeated 3 times. The degree of adhesion is reported as a percentage of cells that adhere relative to control experiments with the peptide Ac-GRGDSC (SEQ ID NO: 28).
# Monolayers were prepared that presented a mixture of maleimide groups and tri(ethylene glycol) groups with the former present at a density of 0.5% (relative to total alkanethiolate). The monolayers were treated with cysteine-terminated peptides to immobilize the ligands (FIG. 1A). In each case mass spectrometry was used to verify immobilization of the peptides in high yield (Su et al., 2002).
# The adhesion and spreading of αIIbβ3 CHO K1 cells to monolayers presenting GRGDSC (SEQ ID NO: 11), HHLGGAKQAGDVC (SEQ ID NO: 21) and a mixture of both peptides was compared. […]
# αIIbβ3 CHO K1 cells [5] = assay: Immunostaining of cytoskeletal structure of αIIbβ3 CHO K1 cells adherent to model substrates; assay type: cell-based, human; details: monolayers presenting the peptide; four hours; anti-vinculin, phalloidin, DAPI
# Description: αIIbβ3 CHO K1 cells were allowed to adhere and spread on substrates as described above. Substrates were washed gently with PBS, and fixed and permeabilized as described above. Cells were stained with monoclonal anti-vinculin IgG to visualize focal adhesions, phalloidin to visualize stress fibers and DAPI to visualize the nucleus. Substrates were rinsed thoroughly with PBS and mounted on microscope slides with Aqua Poly/Mount (PolySciences Inc.). Substrates were visualized with a 100× objective of a Zeiss Axiovert 200 inverted microscope, and photographed.
# The assembly of focal adhesion and actin stress fibers of αIIbβ3 CHO K1 cells adhered to monolayers presenting GRGDSC (SEQ ID NO: 11), HHLGGAKQAGDVC (SEQ ID NO: 21) a mixture of both peptides, and adsorbed Fbg (FIGS. 3, E, F, G and H respectively) was compared. The αIIbβ3 CHO K1 cells were allowed to attach and spread on the monolayers for four hours, and then fixed the cells and probed with anti-vinculin IgG to visualize focal adhesions and with phalloidin-AF 488 to visualize actin stress fibers.
# HT1080 cells = assay: Ac-GXGDSC peptide array cell adhesion, HT1080 cells; assay type: cell-based
# CHO-K1 cells = assay: Ac-GXGDSC peptide array cell adhesion, CHO K1 cells; assay type: cell-based
# Protocol: Cysteine-terminated peptides were immobilized onto maleimide-presenting SAMs by adding 40 μL of 1 mM peptide solution to the biochip and incubating at 37° C. for 1 hour. Substrates were rinsed with DIUF water and ethanol and dried under a stream of nitrogen. αIIbβ3 CHO K1 cells were detached from culture plates with 1 mM EGTA/2 mM EDTA in PBS (phosphate-buffered saline), rinsed with serum-free F-12K medium, centrifuged and resuspended in serum-free F-12K medium supplemented with cRGDFG (SEQ ID NO: 12) (300 μM) and 1× penicillin/streptomycin. After 15-minute of incubation, cells (200,000/mL) were added to substrates in 24-well culture plates. After 2 hour incubation at 37° C. and 5% CO2, media was exchanged for F-12K medium supplemented with 10% FBS, 1× penicillin/streptomycin and cRGDFG (SEQ ID NO: 12) (300 μM). After 2 hours, the substrates were washed gently with warm PBS, and adherent cells were immediately fixed with 4% formaldehyde for 30 minutes, visualized with a 20× objective of a Zeiss Axiovert 200 inverted microscope, and photographed. […] The number of adherent cells per field of view was counted using Image J software. Cells were counted in at least three fields for each circle, and each experiment was repeated 3 times. […]
# BHK 21 cells = assay: Ac-GXGDSC peptide array cell adhesion, BHK 21 cells; assay type: cell-based
# αIIbβ3 CHO K1 cells [6] = assay: Ac-GXGDSC peptide array cell adhesion, αIIbβ3 CHO K1 cells; assay type: cell-based, human; details: 0.5% peptide spots; 300 μM cRGDFG
# Protocol: as §3
# To further assay the binding of peptide ligands to the […] integrin for XGD peptide ligands, an array was used to assess the adhesion of cells to peptides having the arginine residue substituted with each amino acid other than cysteine (e.g., A, D, E, F, G, H, I, K, L, M, N, P, Q, R, S, T, V, W, and Y). The library of Ac-GXGDSC (SEQ ID NO: 26) peptides was synthesized and immobilized in an array with each peptide occupying a 1 mm diameter region of the monolayer (FIG. 61). A suspension of αIIbβ3 CHO K1 cells was applied to the entire array and cells were allowed to attach to regions presenting the various peptides. The substrates were then rinsed and stained with DAPI, and the cells were counted to determine the relative efficiency of cell attachment to peptides in the library. […] Substitution with leucine and isoleucine were also active, though at a lower level.
substance,measurement,setting,value
RGDS (synthesized peptide inhibitor),inhibition of Fbg binding to platelets,platelets [1],blocked the binding of both PAC-1 and Fbg to platelets with equal potency
same,inhibition of PAC-1 binding,αIIbβ3,blocked the binding of both PAC-1 and Fbg to platelets with equal potency
cRGDFG,block of attachment of CHO K1 cells to monolayer presenting GRGDSC,CHO K1 cells,could efficiently block the attachment
same,effect on adhesion of αIIbβ3 CHO K1 cells to monolayer presenting GRGDSC,αIIbβ3 CHO K1 cells [2],did not interfere with adhesion
same,IC50,αvβ3,1.6 nM
same,affinity for αvβ3 relative to αIIbβ3 integrin,αvβ3,"approximately 1,400 fold"
RGD,inhibition of A2A9 binding to platelets,platelets [3],not
GRGDSC (GRGDSC-NH2) [Cys-terminated fibrinogen RGD peptide immobilized on monolayer],adhesion of αIIbβ3 CHO K1 cells to monolayer presenting the peptide,αIIbβ3 CHO K1 cells [4],adhered
same,cytoskeletal structure and focal adhesions of adherent cells,αIIbβ3 CHO K1 cells [5],well-developed cytoskeletal structures and mature focal adhesions along the perimeter
LGGAKQAGDV (not fully specified (C-terminus)) [γ-derived peptide],inhibition of A2A9 binding to platelets,platelets [3],could inhibit the binding of A2A9 to platelets
same,inhibition of Fbg binding to platelets,platelets [1],inhibited Fbg binding to platelets with an affinity comparable to that of RGDS
same,less potent in inhibiting PAC-1 binding to αIIbβ3,αIIbβ3; compared with its inhibition of Fbg binding / RGDS,2.5 fold
Ac-GRGDSC (Ac-GRGDSC-NH2),cell adhesion on Ac-GXGDSC array,HT1080 cells,promoted significant cell adhesion
same,cell adhesion on Ac-GXGDSC array,CHO-K1 cells,promoted significant cell adhesion
same,cell adhesion on Ac-GXGDSC array,BHK 21 cells,promoted significant cell adhesion
same,cell adhesion on Ac-GXGDSC array relative to Ac-GRGDSC,αIIbβ3 CHO K1 cells [6],mediated αIIbβ3 CHO K1 cell adhesion
